Assay results published in patent US10407432B2, “[1,2,4]triazolo[4,3-B]pyridazines for use in the treatment of proliferative diseases” (AstraZeneca AB, priority 2014, dated 2019).

Key:
[1] = pKa determination
[2] = Hygroscopicity of co-crystal versus free base; assay type: physicochemical
[3] = Stability under temperature and humidity conditions; assay type: physicochemical; conditions: exposed to range of temperature and humidity conditions
[4] = target: T1, BRD4 (2) (Homo sapiens, UniProt O60885); assay: BROMOscan assay (DiscoverX) BRD4(2); assay type: binding
T1 construct: purchased Discoverx (BROMOscan service)
Procedure: (§1) BROMOscan™ Assay (ex Discoverx)
(§2) The ability of the compounds to bind to a bromodomain protein was tested by Discoverx using their proprietory ligand binding site-directed competition assay. Supplied compounds were anonymised.
(§3) The BROMOscan assay is based on the principle that test compounds that bind the bromodomain protein prevent its binding to an immobilized ligand thus reducing the amount of protein captured on a solid support. […] Screening “hits” are identified by measuring the amount of bromodomain captured in test versus control samples by using a quantitative, precise and ultra-sensitive qPCR method that detects the associated DNA label. In a similar manner, dissociation constants (Kds) for test compound-bromodomain interactions are calculated by measuring the amount of bromodomain protein captured on the solid support as a function of the test compound concentration.

[5] = target: T2, BRD2 (1) (Homo sapiens, UniProt P25440); assay: BROMOscan assay (DiscoverX) BRD2(1); assay type: binding
T2 construct: purchased Discoverx (BROMOscan service)
T2 sequence (P25440 74-180 limits assumed): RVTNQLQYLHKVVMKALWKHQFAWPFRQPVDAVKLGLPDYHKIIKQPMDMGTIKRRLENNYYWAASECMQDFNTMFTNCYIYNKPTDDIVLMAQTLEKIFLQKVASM
Procedure: as §1, §2, §3

[6] = target: T3, BRD2 (2) (Homo sapiens, UniProt P25440); assay: BROMOscan assay (DiscoverX) BRD2(2); assay type: binding
T3 construct: purchased Discoverx (BROMOscan service)
T3 sequence (P25440 344-453 limits assumed): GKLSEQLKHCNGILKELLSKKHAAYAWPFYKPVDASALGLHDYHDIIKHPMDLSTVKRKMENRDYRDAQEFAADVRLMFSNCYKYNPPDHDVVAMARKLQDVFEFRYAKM
Procedure: as §1, §2, §3

[7] = target: T4, BRD3 (1) (Homo sapiens, UniProt Q15059); assay: BROMOscan assay (DiscoverX) BRD3(1); assay type: binding
T4 construct: purchased Discoverx (BROMOscan service)
T4 sequence (Q15059 34-140 limits assumed): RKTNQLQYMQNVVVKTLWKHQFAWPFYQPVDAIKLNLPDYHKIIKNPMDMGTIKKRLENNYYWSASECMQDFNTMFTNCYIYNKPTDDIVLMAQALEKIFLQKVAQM
Procedure: as §1, §2, §3

[8] = target: T5, BRD3 (2) (Homo sapiens, UniProt Q15059); assay: BROMOscan assay (DiscoverX) BRD3(2); assay type: binding
T5 construct: purchased Discoverx (BROMOscan service)
T5 sequence (Q15059 306-415 limits assumed): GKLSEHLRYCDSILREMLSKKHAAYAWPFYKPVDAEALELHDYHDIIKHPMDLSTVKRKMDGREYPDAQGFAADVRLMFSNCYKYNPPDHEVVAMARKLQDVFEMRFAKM
Procedure: as §1, §2, §3

[9] = target: T6, BRDT (1) (Homo sapiens, UniProt Q58F21); assay: BROMOscan assay (DiscoverX) BRDT(1); assay type: binding
T6 construct: purchased Discoverx (BROMOscan service)
Procedure: as §1, §2, §3

[10] = target: T7, BRDT (2) (Homo sapiens, UniProt Q58F21); assay: BROMOscan assay (DiscoverX) BRDT(2); assay type: binding
T7 construct: purchased Discoverx (BROMOscan service)
Procedure: as §1, §2, §3

[11] = tested on: MM1.S cells; assay: Anti-proliferative assay (AlamarBlue) in MM1.S cells; assay type: cell-based; conditions: Homo sapiens, 72 h, 3 days of culture, read-out: MM1.S Antiproliferative GI50/μM
Procedure: Anti-proliferative assay The anti-proliferative effect of the compounds was assessed by AlamarBlue assay in MM1.S cells which were originally derived from a multiple myeloma patient. This assay is based on Resazurin, a non-fluorescent indicator dye converted to bright red-fluorescent resorufin via the reduction reactions of metabolically active cells. The amount of fluorescence produced is proportional to the number of living cells. MM.1S cells are cultured in RPMI-1640 medium (Gibco®) plus 10% Fetal bovine serum (FBS) and 1 mM L-glutamine. 12-24 hours before compound dosing, 90 μL of cell suspension (18,750 cells) was seeded into 96-well microtiter plates (black, flat bottom). On the day of compound dosing, compounds were serially diluted 1:3 in 100% DMSO using columns 2-10 of a 96-well microtiter plate. Column 11 of compound serial plate contained only DMSO. All wells were then further diluted 1:30 in media. 10 μL of compound or DMSO alone in media was added to cell plates columns 2-11 in triplicate. In addition, 1 plate had 10 μL of media added and was developed using alamar blue. Plates developed on the day of compound addition were referred to as Day 0. Dosed plates were cultured 3 days under normal conditions (RPMI-1640 plus 10% FBS and 1 mM L-glutamine) After 3 days of culture, dosed plates are developed using either MTS or alamar blue. For each compound concentration, % net growth was calculated by
(Day 3 dosed well-Average Day 0)/(Average Day 3 DMSO control-Average Day 0). The GI50, the concentration that causes 50% of growth inhibition, of each compound was calculated using the % net growth as defined by National Cancer Institute (NCI).

[12] = tested on: cMyc protein; assay: Assay monitoring cMyc protein modulation in MM1.S cells (flow cytometry); assay type: cell-based; conditions: Homo sapiens, c-Myc protein level, 16 hours treatment, read-out: MM1.S “MoA” IC50/μM
Procedure: Assay Monitoring cMyc Protein Modulation
Multiple myeloma MM1.S cells were cultured in RPMI-1640 medium containing 10% FBS and 1% L-glutamine under standardized conditions in a humidified incubator (37° C. and 5% CO2). The impact of cMyc protein modulation induced by bromodomain inhibitors was assessed by staining and quantifying c-Myc protein level after compound treatment using a flow cytometer Assay, carried out in 96-well plate format with 200K cells per well. Cells were treated with serially diluted compounds 16 hours before fixing with 2% paraformaldehyde (final concentration) for 10 minutes at 37° C. After being permeablized by ice cold 90% methanol at 4° C. for 30 min, cells were washed, blocked by buffer (0.5% FBS in phosphate-buffered saline (PBS) buffer) for 10 minutes at room temperature, and stained with cMyc antibody for 1 hour (Cell Signaling Technology®5605, 1:200 dilution). Cells were washed and stained by incubating with Alexa-488 conjugated anti-Rabbit IgG (Cell Signaling Technology®#4412, 1:1000 dilution) at RT for 30 minutes. After staining, cells were washed again and fixed with 2% paraformaldehyde in PBS and ready for analysis by BD FACSCalibur™ flow cytometer. Fluorescence geometric mean was calculated through FlowJo (TreeStar Inc), maximal inhibition signal was determined by control compound treatment at high dose across each plate, and minimal inhibition signal was determined by DMSO treatment. IC50 was calculated by fitting the dose-response data points which are normalized against max and min signals as percentage of inhibition using a standard 4-Parameter-Logistic nonlinear regression model.

[13] = tested on: MV-4-11 cells; assay: MV-4-11 xenograft model; assay type: in vivo, mouse; conditions: CB17 SCID mice, 10 mg/kg PO qd for 21 days, FIG. 5
Procedure: Compound A was also investigated in a xenograft model as described below.
Female CB17 SCID mice aged 6 to 8 weeks were obtained from Charles River Laboratories (Wilmington, Mass.) and maintained under specific-pathogen-free conditions in an AAALAC (Association for Assessment and Accreditation of Laboratory Animal Care)—accredited facility. Irradiated food and autoclaved water were provided ad libitum.
MV-4-11 cells ([…]) were resuspended in 0.1 ml of medium without serum and Matrigel (Becton Dickinson) at a 1:1 ratio. Cells (10^7/mouse) were injected subcutaneouly into the right flank of mice. Tumors were allowed to grow until they reached an average volume of 200 mm^3 for efficacy and then the mice were randomized into groups of 8. Compound A was solubilized in 0.5% HPMC/0.1% Tween80 for dosing. For efficacy, either vehicle or Compound A was administered PO once a day (qd) for 21 days at 10 mg/kg (mpk). Body weight and tumour volume were measured twice a week for 21 days.

[14] = physchem
[15] = target: T8, BRD4 (1) (Homo sapiens, UniProt O60885); assay: BROMOscan assay (DiscoverX) BRD4(1); assay type: binding; set-up: purchased Discoverx (BROMOscan service)
Procedure: as §1, §2, §3

[16] = target: T8, BRD4 (1); assay: Alpha-Screen assay, BRD4 BD1; assay type: binding; set-up: 6His-TEV-BRD4, amino acid residues 42-169, corresponding to the BD1 domain; conditions: 6His-TEV-BRD4 residues 42-169 (BD1), H4K5,8,12,16(Ac)4-biotin peptide
Procedure: The ability of the compounds to bind to a bromodomain protein was tested in an AlphaScreen® assay. The assay is based on the interaction between Histidine-tagged bromodomain protein which can bind to Nickel-chelate donor beads, and a Biotinylated acetyl lysine peptide corresponding to a histone amino acid sequence, which can bind to streptavidin-conjugated acceptor beads. The protein-peptide interaction can be detected by light emission at 520-620 nm. In the presence of compounds which bind to BRD4 a lower signal is observed as the protein-peptide interaction is reduced. • 1. The assay was performed as follows: —Greiner BioOne (cat no. 784075) compound plates were used. Compounds were prepared using the Labcyte Echo Acoustic Dispenser with compounds in a final volume of 40 nl per well normalised to 0.5% (v/v) DMSO under final assay conditions. Compounds were tested in 12 point singlicate concentration response format. • 2. 4 μl of BRD4 protein (6His-TEV-BRD4, amino acid residues 42-169, corresponding to the BD1 domain) (final assay concentration=50 nM) per well was added using the Beckman Coulter BioRAPTR® Flying Reagent Dispensor Microfluidic Workstation. • 3. Incubated for 30 minutes at room temperature. • 4. Added 4 μl of acetyl lysine peptide (H4K5,8,12,16(Ac)4-biotin:(NH2-) YSGRG(K-Ac)GG(K-Ac)GLG(K-Ac)GGA(K-Ac)RHR(K-Biotin)(—COOH)) (final assay concentration=50 nM) per well using the Beckman Coulter BioRAPTR® Flying Reagent Dispensor Microfluidic Workstation. • 5. Incubated for 30 minutes at room temperature. • 6. Added 4 μl of Nickel & Streptavidin-bead solution pre-mixed (beads supplied by Perkin Elmer) per well using the BioRaptr as before (final assay concentration=4 μg/ml). Kept plates in the dark after addition. • 7. Incubated for 60 minutes at room temperature keeping the assay plate in the dark • 8. Plates were then read using the Perkin Elmer Envision plate reader, laser excitation at 680 nm and emission detected at 520-620 nm. • 9. Data was analysed using Genedata software and IC50 values calculated.

| Structure (SMILES) | pKa [1] | Hygroscopicity compared to Compound A free base [2] | Stability compared to Compound A free base [3] | Kd [4] [µM] | Kd [5] [µM] | Kd [6] [µM] | Kd [7] [µM] | Kd [8] [µM] | Kd [9] [µM] | Kd [10] [µM] | GI50 [11] [µM] | IC50 [12] [µM] | Tumour growth inhibition (tumour volume) [13] | pKa [14] | Kd [15] [µM] | IC50 [16] [µM] |
| --- | --- | --- | --- | --- | --- | --- | --- | --- | --- | --- | --- | --- | --- | --- | --- | --- |
| O=C(O)c1ccc2cc(O)ccc2c1 [6-hydroxy-2-naphthoic acid] | 4.3 |  |  |  |  |  |  |  |  |  |  |  |  |  |  |  |
| COc1nnc2ccc(N3CCC(c4ccc(OCCN5CCN(C)C(=O)[C@H]5C)cc4)CC3)nn12.O=C(O)c1ccc2cc(O)ccc2c1 [(R)-4-(2-(4-(1-(3-methoxy-[1,2,4]triazolo[4,3-b]pyridazin-6-yl)piperidin-4-yl)phenoxy)ethyl)-1,3-dimethylpiperazin-2-one:6-hydroxy-2-naphthoic acid (1:1) co-crystal] |  | significantly less hydroscopic than Compound A free base | more stable than Compound A free base |  |  |  |  |  |  |  |  |  |  |  |  |  |
| COc1nnc2ccc(N3CCC(c4ccc(OCCN5CCN(C)C(=O)[C@H]5C)cc4)CC3)nn12 [Example 1, (R)-4-(2-(4-(1-(3-methoxy-[1,2,4]triazolo[4,3-b]pyridazin-6-yl)piperidin-4-yl)phenoxy)ethyl)-1,3-dimethylpiperazin-2-one] |  |  |  | 0.13 | 0.1 | 0.28 | 0.064 | 0.43 | 0.095 | 0.45 | 0.0049 | 0.011 | Tumour Growth Inhibition | < 1 | 0.047 | 0.12 |
| COc1nnc2ccc(N3CCC(c4ccc(OCCN5[C@H](C)CN(C(C)=O)C[C@@H]5C)cc4)CC3)nn12 [Example 2, 1-((3S,5R)-4-(2-(4-(1-(3-methoxy-[1,2,4]triazolo[4,3-b]pyridazin-6-yl)piperidin-4-yl)phenoxy)ethyl)-3,5-dimethylpiperazin-1-yl)ethanone] |  |  |  | 0.29 | 0.083 | 0.35 | 0.057 | 0.92 | 0.035 | 1.1 | < 0.002 | < 0.002 |  |  | 0.026 | 0.035 |
| COc1nnc2ccc(N3CCC(c4ccc(OCCCN5CCN(C)C(=O)[C@H]5C)cc4)CC3)nn12 [Example 3, (R)-4-(3-(4-(1-(3-methoxy-[1,2,4]triazolo[4,3-b]pyridazin-6-yl)piperidin-4-yl)phenoxy)propyl)-1,3-dimethylpiperazin-2-one] |  |  |  | 0.34 | 0.16 | 0.53 | 0.11 | 0.67 | 0.093 | 0.99 | 0.0075 | 0.025 |  |  | 0.11 | 0.3 |
| COc1nnc2ccc(N3CCC(c4ccc(OCCCN5[C@H](C)CN(C(C)=O)C[C@@H]5C)cc4)CC3)nn12 [Example 4, 1-((3R,5S)-4-(3-(4-(1-(3-methoxy-[1,2,4]triazolo[4,3-b]pyridazin-6-yl)piperidin-4-yl)phenoxy)propyl)-3,5-dimethylpiperazin-1-yl)ethanone] |  |  |  | 0.25 |  |  |  |  |  |  | 0.0051 | 0.012 |  |  | 0.057 | 0.14 |
